System: BRM-dependent transcription (BRG1 mutant lung cancer cell line A549)
Test: BRM-dependent transcription, MMTV luciferase reporter in BRG1 mutant A549 cells
Assay type: cell-based
Conditions: Table 11; for IC50: Homo sapiens, A549, 6 h, A549-MMTV luciferase reporter, dexamethasone induced, 6 hours; for Ratio (MDA-MMTV IC50 (μM) divided by A549-MMTV IC50 (μM)): MMTV luciferase reporter cell lines, selectivity BRG1/BRM
Experimental: The potential inhibitory effects of compounds on BRG1 and BRM dependent transcription was study by testing the activity of against the BRG1 mutant lung cancer cell line A549 and a MDA cell line with BRM removed by CRISPR. Both cell lines were genetically engineered with a BRG1 or BRM-dependent mouse mammary tumor virus luciferase reporter. Luciferase transcription was induced by dexamethasone in the presence of compound at different concentrations and luminescence was measured using a plate reader 6 hours after stimulation.

COc1nc([C@@H](C)C(F)F)ccc1-c1ccc2cnc(CNC(=O)c3cc(F)c4c(c3)S(=O)(=O)[C@@H](F)CCO4)cc2n1 [Compound 366]
IC50: 24.1 nM | Ratio (MDA-MMTV IC50 (μM) divided by A549-MMTV IC50 (μM)): 29.97

COc1nc([C@](C)(F)C(F)F)ccc1-c1ccc2cnc(CNC(=O)c3cc(F)c4c(c3)S(=O)(=O)[C@@H](F)CCOC4)cc2n1 [Compound 367]
IC50: 3 nM | Ratio (MDA-MMTV IC50 (μM) divided by A549-MMTV IC50 (μM)): 17.70

COc1nc([C@@](C)(F)C(F)F)ccc1-c1ccc2cnc(CNC(=O)c3cc(F)c4c(c3)S(=O)(=O)[C@@H](F)CCOC4)cc2n1 [Compound 368]
IC50: 2.2 nM | Ratio (MDA-MMTV IC50 (μM) divided by A549-MMTV IC50 (μM)): 17.34

COc1ccc(-c2ccc3cnc(CNC(=O)c4cc(Cl)c5c(c4)S(=O)(=O)[C@@H](F)CCO5)cc3n2)nc1C1CC1(F)F (stereo partly shown) [Compound 369]
IC50: 17.1 nM | Ratio (MDA-MMTV IC50 (μM) divided by A549-MMTV IC50 (μM)): 26.85

CCOc1ccc(-c2ccc3cnc(CNC(=O)c4cc(Cl)c5c(c4)S(=O)(=O)[C@@H](F)CCO5)cc3n2)nc1C1CC1(F)F (stereo partly shown) [Compound 370]
IC50: 20.5 nM | Ratio (MDA-MMTV IC50 (μM) divided by A549-MMTV IC50 (μM)): 27.27

O=C(NCc1cc2nc(-c3ccc(C(F)F)c(C4CC4)n3)ccc2cn1)c1cc(Cl)c2c(c1)S(=O)(=O)[C@@H](F)CCO2 [Compound 371]
IC50: 7.9 nM | Ratio (MDA-MMTV IC50 (μM) divided by A549-MMTV IC50 (μM)): 21.86

C[C@@H]1CN(c2cccc(-c3ccc4cnc(CNC(=O)c5cc(C#N)c6c(c5)S(=O)(=O)[C@@H](F)CCO6)cc4n3)n2)C[C@H](C)O1 [Compound 372]
IC50: 7.6 nM | Ratio (MDA-MMTV IC50 (μM) divided by A549-MMTV IC50 (μM)): 21.84

O=C(NCc1cc2nc(-c3cnc(OC(F)F)c(C4CC4)n3)ccc2cn1)c1cc(F)c2c(c1)S(=O)(=O)[C@@H](F)CCO2 [Compound 373]
IC50: 14.9 nM | Ratio (MDA-MMTV IC50 (μM) divided by A549-MMTV IC50 (μM)): 23.16

[2H]C1([2H])Oc2c(F)cc(C(=O)NCc3cc4nc(-c5ccc(OCC)c(C6CC6(F)F)n5)ccc4cn3)cc2S(=O)(=O)[C@@]([2H])(F)C1([2H])[2H] (stereo partly shown) [Compound 374]
IC50: 17.8 nM | Ratio (MDA-MMTV IC50 (μM) divided by A549-MMTV IC50 (μM)): 54.50

CCOc1nc([C@H](C)F)ccc1-c1ccc2cnc(CNC(=O)c3cc(F)c4c(c3)S(=O)(=O)[C@@H](F)CCO4)cc2n1 [Compound 375]
IC50: 6.5 nM | Ratio (MDA-MMTV IC50 (μM) divided by A549-MMTV IC50 (μM)): 36.69

CCOc1nc([C@@H](C)F)ccc1-c1ccc2cnc(CNC(=O)c3cc(F)c4c(c3)S(=O)(=O)[C@@H](F)CCO4)cc2n1 [Compound 376]
IC50: 15.3 nM | Ratio (MDA-MMTV IC50 (μM) divided by A549-MMTV IC50 (μM)): 22.09

[2H]C([2H])([2H])C([2H])([2H])Oc1ccc(-c2ccc3cnc(CNC(=O)c4cc(F)c5c(c4)S(=O)(=O)[C@@]([2H])(F)C([2H])([2H])C([2H])([2H])O5)cc3n2)nc1C1CC1(F)F (stereo partly shown) [Compound 378]
IC50: 11.1 nM | Ratio (MDA-MMTV IC50 (μM) divided by A549-MMTV IC50 (μM)): 43.63

[2H]C1([2H])OC([2H])([2H])[C@H](F)S(=O)(=O)c2cc(C(=O)NCc3cc4nc(-c5cccc(OC(F)F)n5)ccc4cn3)cc(F)c21 [Compound 379]
IC50: 20 nM | Ratio (MDA-MMTV IC50 (μM) divided by A549-MMTV IC50 (μM)): 22.55

COc1nc([C@H](F)CF)ccc1-c1ccc2cnc(CNC(=O)c3cc(Cl)c4c(c3)S(=O)(=O)[C@@H](F)COC4)cc2n1 [Compound 380]
IC50: 9.1 nM | Ratio (MDA-MMTV IC50 (μM) divided by A549-MMTV IC50 (μM)): 33.44

COc1nc([C@@H](F)CF)ccc1-c1ccc2cnc(CNC(=O)c3cc(Cl)c4c(c3)S(=O)(=O)[C@@H](F)COC4)cc2n1 [Compound 381]
IC50: 6.8 nM | Ratio (MDA-MMTV IC50 (μM) divided by A549-MMTV IC50 (μM)): 29.06

COc1nc([C@@H](F)CF)ccc1-c1ccc2cnc(CNC(=O)c3cc(Cl)c4c(c3)S(=O)(=O)[C@@H](F)CCO4)cc2n1 [Compound 382]
IC50: 9.6 nM | Ratio (MDA-MMTV IC50 (μM) divided by A549-MMTV IC50 (μM)): 40.88

COc1nc([C@@H](F)CF)ccc1-c1ccc2cnc(CNC(=O)c3cc(Br)c4c(c3)S(=O)(=O)[C@@H](F)CCO4)cc2n1 [Compound 383]
IC50: 21.8 nM | Ratio (MDA-MMTV IC50 (μM) divided by A549-MMTV IC50 (μM)): 24.64

[2H]C([2H])([2H])Oc1nc([C@H](C)F)ccc1-c1ccc2cnc(CNC(=O)c3cc(F)c4c(c3)S(=O)(=O)[C@@H](F)CCO4)cc2n1 [Compound 384]
IC50: 6.4 nM | Ratio (MDA-MMTV IC50 (μM) divided by A549-MMTV IC50 (μM)): 29.60

Cc1cc(C(=O)NCc2cc3nc(-c4ccc(C(F)F)c(C5CC5)n4)ccc3cn2)cc2c1OCC[C@H](F)S2(=O)=O [Compound 385]
IC50: 20.9 nM | Ratio (MDA-MMTV IC50 (μM) divided by A549-MMTV IC50 (μM)): 22.49

O=C(NCc1cc2nc(-n3cc(F)c(OC4CC4)n3)ccc2cn1)c1cc(F)c2c(c1)S(=O)(=O)[C@@H](F)CCO2 [Compound 386]
IC50: 26 nM | Ratio (MDA-MMTV IC50 (μM) divided by A549-MMTV IC50 (μM)): 23.22

O=C(NCc1cc2nc(-c3cccc(OCC(F)F)n3)ccc2cn1)c1cc(Cl)c2c(c1)S(=O)(=O)[C@@H](F)COC2 [Compound 387]
IC50: 17.3 nM | Ratio (MDA-MMTV IC50 (μM) divided by A549-MMTV IC50 (μM)): 34.06

COc1nc(OC(F)F)ccc1-c1ccc2cnc(CNC(=O)c3cc(F)c4c(c3)S(=O)(=O)[C@@H](F)CCO4)cc2n1 [Compound 388]
IC50: 7.3 nM | Ratio (MDA-MMTV IC50 (μM) divided by A549-MMTV IC50 (μM)): 26.43

C[C@H](F)c1ccc(-c2ccc3cnc(CNC(=O)c4cc(F)c5c(c4)S(=O)(=O)[C@@H](F)CCO5)cc3n2)c(OC(F)F)n1 [Compound 389]
IC50: 3.2 nM | Ratio (MDA-MMTV IC50 (μM) divided by A549-MMTV IC50 (μM)): 26.77

CCOc1nc([C@H](F)CF)ccc1-c1ccc2cnc(CNC(=O)c3cc(F)c4c(c3)S(=O)(=O)[C@@H](F)CCO4)cc2n1 [Compound 390]
IC50: 7.4 nM | Ratio (MDA-MMTV IC50 (μM) divided by A549-MMTV IC50 (μM)): 22.68

O=C(NCc1cc2nc(-c3ccc([C@@H](F)CF)nc3OC(F)F)ccc2cn1)c1cc(F)c2c(c1)S(=O)(=O)[C@@H](F)CCO2 [Compound 391]
IC50: 2.1 nM | Ratio (MDA-MMTV IC50 (μM) divided by A549-MMTV IC50 (μM)): 24.21

O=C(NCc1cc2nc(-c3ccc([C@H](F)CF)nc3OC(F)F)ccc2cn1)c1cc(F)c2c(c1)S(=O)(=O)[C@@H](F)CCO2 [Compound 392]
IC50: 4.7 nM | Ratio (MDA-MMTV IC50 (μM) divided by A549-MMTV IC50 (μM)): 24.22

C#Cc1cc(C(=O)NCc2cc3nc(-c4cccc(N5C[C@@H](C)O[C@@H](C)C5)n4)ccc3cn2)cc2c1COC[C@H](F)S2(=O)=O [Compound 393]
IC50: 20.3 nM | Ratio (MDA-MMTV IC50 (μM) divided by A549-MMTV IC50 (μM)): 36.31

[2H]C([2H])([2H])Oc1nc([C@H](F)CF)ccc1-c1ccc2cnc(CNC(=O)c3cc(F)c4c(c3)S(=O)(=O)[C@@H](F)CCO4)cc2n1 [Compound 394]
IC50: 9.2 nM | Ratio (MDA-MMTV IC50 (μM) divided by A549-MMTV IC50 (μM)): 24.90

CCOc1nc([C@H](C)F)ccc1-c1ccc2cnc(CNC(=O)c3cc(F)c4c(c3)S(=O)(=O)[C@@H](F)COC4)cc2n1 [Compound 395]
IC50: 4.7 nM | Ratio (MDA-MMTV IC50 (μM) divided by A549-MMTV IC50 (μM)): 21.65

CC(C)c1ccc(-c2ccc3cnc(CNC(=O)c4cc(F)c5c(c4)S(=O)(=O)[C@@H](F)CCO5)cc3n2)nc1C1CC1 [Compound 396]
IC50: 13.8 nM | Ratio (MDA-MMTV IC50 (μM) divided by A549-MMTV IC50 (μM)): 25.74

Cc1cc(C(=O)NCc2cc3nc(-c4ccc(C(F)F)c(C5CC5)n4)ccc3cn2)cc2c1COC[C@H](F)S2(=O)=O [Compound 397]
IC50: 5.3 nM | Ratio (MDA-MMTV IC50 (μM) divided by A549-MMTV IC50 (μM)): 29.48

O=C(NCc1cc2nc(-c3ccc(C(F)F)c(C4CC4(F)F)n3)ccc2cn1)c1cc(F)c2c(c1)S(=O)(=O)[C@@H](F)CCO2 (stereo partly shown) [Compound 399]
IC50: 12.9 nM | Ratio (MDA-MMTV IC50 (μM) divided by A549-MMTV IC50 (μM)): 24.67
